Measured values from US11278547B2 (Strongbridge Dublin Limited, priority 2019, dated 2022).

Assays:
MATE1 = molecular target: T1, MATE1 (Homo sapiens, UniProt Q96FL8)
T1 sequence (Q96FL8 1-570): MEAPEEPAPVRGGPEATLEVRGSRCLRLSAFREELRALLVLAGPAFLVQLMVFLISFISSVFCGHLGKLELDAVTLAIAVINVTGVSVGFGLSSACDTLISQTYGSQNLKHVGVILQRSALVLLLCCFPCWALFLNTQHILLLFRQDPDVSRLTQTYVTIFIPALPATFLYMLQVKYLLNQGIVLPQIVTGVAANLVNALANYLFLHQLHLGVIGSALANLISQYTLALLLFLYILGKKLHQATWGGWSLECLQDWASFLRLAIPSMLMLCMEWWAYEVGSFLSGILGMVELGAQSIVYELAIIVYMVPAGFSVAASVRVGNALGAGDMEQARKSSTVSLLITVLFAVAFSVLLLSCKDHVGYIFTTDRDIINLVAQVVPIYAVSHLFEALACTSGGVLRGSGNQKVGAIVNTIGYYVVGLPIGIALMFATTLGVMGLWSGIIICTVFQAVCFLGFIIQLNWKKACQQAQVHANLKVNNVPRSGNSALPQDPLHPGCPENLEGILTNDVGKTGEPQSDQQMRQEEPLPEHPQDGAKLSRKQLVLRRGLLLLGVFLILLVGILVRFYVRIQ

OCT2 = molecular target: T2, OCT2 (Homo sapiens, UniProt O15244)
T2 sequence (O15244 1-555): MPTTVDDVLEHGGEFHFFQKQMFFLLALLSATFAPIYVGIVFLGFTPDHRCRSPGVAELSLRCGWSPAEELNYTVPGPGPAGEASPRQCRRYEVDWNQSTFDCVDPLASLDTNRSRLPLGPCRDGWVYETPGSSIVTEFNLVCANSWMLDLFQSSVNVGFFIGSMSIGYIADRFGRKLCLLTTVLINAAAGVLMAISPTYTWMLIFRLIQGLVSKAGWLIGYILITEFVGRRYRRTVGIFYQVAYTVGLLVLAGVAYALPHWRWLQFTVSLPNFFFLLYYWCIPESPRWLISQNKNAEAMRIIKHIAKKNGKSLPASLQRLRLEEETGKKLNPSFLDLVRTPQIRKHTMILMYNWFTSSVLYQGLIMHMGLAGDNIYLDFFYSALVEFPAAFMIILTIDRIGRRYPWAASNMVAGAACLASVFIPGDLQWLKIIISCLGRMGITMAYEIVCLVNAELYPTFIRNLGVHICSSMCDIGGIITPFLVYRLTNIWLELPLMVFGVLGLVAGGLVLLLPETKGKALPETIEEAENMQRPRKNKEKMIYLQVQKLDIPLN

[1] = Cushing's syndrome patients, reportedly; cited from earlier work

Structure (SMILES) | IC50 (MATE1) | IC50 (OCT2) | patients in whom hypercortisolism is normalized [1]
CC(=O)N1CCN(c2ccc(OC[C@@H]3CO[C@@](Cn4ccnc4)(c4ccc(Cl)cc4Cl)O3)cc2)CC1 (relative stereo) [Levoketoconazole, 2S,4R cis-1-acetyl-4-[4-[[2-(2,4-dichlorophenyl)-2-(1H-imidazol-1-ylmethyl)-1,3-dioxolan-4-yl]methoxyl]phenyl]piperazine] | 248 nM | 218 nM | –
CC(=O)N1CCN(c2ccc(OCC3COC(Cn4ccnc4)(c4ccc(Cl)cc4Cl)O3)cc2)CC1 (racemic) [Ketoconazole, ketoconazole] | 279 nM | 1520 nM | 30-70%
